# Laboratory results reported in US20210379062A1, “The use of a H3R inverse agonist for the treatment of excessive daytime sleepiness associated with parkinson's disease (PD)” (Novartis AG, priority 2018, published 2021).
# Where “and” joins values, the source holds several entries; their conditions need not be identical. Equal values may be shown once.
# Tests used:
# [1] = First-in-human SAD/MAD study: safety, tolerability, night sleep duration, formulation effect; assay type: in vivo
# Description: (§1) An open-label, adaptive design study was performed in healthy volunteers to characterize regional brain H3 receptor occupancy following single dose of Compound (I) by using positron emission tomography (PET) with the radioligand [^11C]MK-8278 (Van Laere, K. J. et al, Journal of Nuclear Medicine, 2014, 55: 65-72). The primary objective of this study was to evaluate the plasma concentration of Compound (I) leading to 50% occupancy of H3 receptors in the brain (EC50). A total of 6 subjects were enrolled into the study and were scanned in three cohorts of two subjects each. Prior to dosing with Compound (I), each subject underwent a baseline PET scan to assess binding of [^11C]MK-8278 to H3R in the absence of Compound (I). Subjects subsequently received single oral doses of Compound (I) and then underwent two post-dose PET scans. Subjects of cohort 1 received a single oral dose of 300 mg of Compound (I), corresponding to the single dose maximum tolerated dose (MTD) determined from the Phase I study after single oral dose of Compound (I). These subjects underwent two post-dose PET scans, at 3 hours and 27 hours after dosing. The doses and scan timings for the subsequent cohorts were selected based on interim data analyses following the completion of the preceding cohort(s). Subjects of cohorts 2 and 3 received a single oral dose of 10 mg and 0.3 mg, respectively. Compound (I) was administered as capsules in cohorts 1 and 2, whereas cohort 3 received Compound (I) as an oral solution. […] The first post-dose PET scan for cohorts 2 and 3 was acquired at 3 hours and the second one at 27 hours and 8 hours after dosing, respectively.
# PK data (drug concentration over time) from Part 1 and Part 2 of the Phase I study were used in the development of the model: • 1) Part 1 is the Single Ascending Dose part; 8 different cohorts were used, with each cohort composed of 6 active subjects and 2 placebo subjects. The dose amounts used in the 8 cohorts were 0.3, 1, 3, 10, 30, 100, 300 and 800 mg. Dosing was performed at time equal to 0 hours. […]
# [2] = molecular target: H3 receptors in the brain (Homo sapiens, UniProt Q9Y5N1); test: PET brain H3 receptor occupancy study with [11C]MK-8278 in healthy volunteers; assay type: in vivo
# Description: as §1
# The binding was consistent with both the known distribution of H3 receptors and previous [^11C]MK-8278 data (Van Laere, K. J. et al, Journal of Nuclear Medicine, 2014, 55: 65-72). The kinetics of [^11C]MK-8278 in brain were analyzed using different modelling approaches, such as the one- and two-tissue compartment (1TC, 2TC) models, multilinear analysis (MA1; Ichise, M. et al., Journal of Cerebral Blood Flow and Metabolism, 2002, 22: 1271-1281) and the Logan graphical method (Logan, J. et al., Journal of Cerebral Blood Flow and Metabolism, 1990, 10(5): 740-747). All methods produced similar results, but the 2TC model was the most appropriate to derive regional VT values. Tissue time-activity curves (TACs) were generated for all scans and were characterized by a peak at around 5-15 minutes post-injection, followed by washout. After administration of Compound (I), regional binding of [^11C]MK-8278 was reduced compared to baseline scans, indicating engagement of Compound (I) with the target. The occupancy plot method proposed by Lassen (Lassen, N. A. et al., Journal of Cerebral Blood Flow and Metabolism, 1995, 15 (1): 152-165; Cunningham, V. J. et al., Journal of Cerebral Blood Flow and Metabolism, 2010, 30 (1): 46-50) was applied to estimate whole-brain H3 receptor occupancy for each post-dose PET scan. This method also provided consistent estimates of the non-displaceable component (VND).
# The relationship between plasma concentration of Compound (I) and H3 receptor occupancy was characterized plotting occupancy estimates against corresponding plasma concentration data (measured at the start of each post-dose PET scan). The RO versus concentration was analyzed using the Emax model:
# Where RO=Receptor occupancy; Emax=maximum receptor occupancy; Cp=plasma concentration of Compound (I) during PET scan; EC50=plasma concentration leading to 50% of maximum change in RO.
# H3 receptors in the brain, sequence (Q9Y5N1 whole entry): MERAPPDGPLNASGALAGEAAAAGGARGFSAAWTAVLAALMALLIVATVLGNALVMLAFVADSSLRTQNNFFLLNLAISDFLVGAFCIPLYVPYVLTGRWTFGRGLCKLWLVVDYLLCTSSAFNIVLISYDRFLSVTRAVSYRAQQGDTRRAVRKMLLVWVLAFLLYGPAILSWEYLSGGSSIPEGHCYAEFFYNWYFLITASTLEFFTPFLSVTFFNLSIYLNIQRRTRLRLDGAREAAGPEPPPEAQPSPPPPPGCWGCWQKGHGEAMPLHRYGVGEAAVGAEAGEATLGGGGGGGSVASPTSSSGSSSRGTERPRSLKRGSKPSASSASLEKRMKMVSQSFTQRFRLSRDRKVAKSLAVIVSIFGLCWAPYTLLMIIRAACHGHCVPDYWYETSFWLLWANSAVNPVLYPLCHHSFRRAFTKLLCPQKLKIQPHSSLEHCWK
structure (smiles),measurement,setting,value
"Cn1nc(N2CCC(OC(=O)N3CCN(C4CCC4)CC3)CC2)ccc1=O [Compound (I), 1-(1-methyl-6-oxo-1,6-dihydropyridazin-3-yl)piperidin-4-yl 4-cyclobutylpiperazine-1-carboxylate]",highest tolerated repeated dose,"[1]; healthy volunteer study, repeated dose",50 mg
same,"difference in PK, capsule vs oral solution","[1]; in vivo, po",no clinically relevant difference
same,single dose maximum tolerated dose (MTD),"[1]; single oral dose, Phase I study",300 mg
same,Emax (maximum receptor occupancy),[2]; Emax model of PK-RO relationship,96.1% and 96.16%
same,Receptor occupancy (RO),"[2]; first cohort, single oral dose 300 mg, 3 hours post-dose, both subjects",higher than 95%
same,Receptor occupancy (RO),"[2]; first cohort, single oral dose 300 mg, 27 hours post-dose, both subjects",higher than 95%
same,EC50,"[2]; read-out: EC50 (plasma concentration leading to 50% occupancy of H3 receptors), Emax model of PK-RO relationship, plasma concentration",0.772 nM
same,Receptor occupancy (RO),"[2]; second cohort, single oral dose 10 mg, 3 hours post dose",similarly high
same,Receptor occupancy (RO),"[2]; second cohort, single oral dose 10 mg, 27 hours post dose",decreased
same,Receptor occupancy (RO),"[2]; third cohort, single oral dose 0.3 mg, 3 h and 8 h post dose",generally lower than in the other cohorts
